The target in the test is T1, recombinant HDAC6 (Homo sapiens, UniProt Q9UBN7).
T1 construct: purchased BPS Bioscience Corp. (San Diego, CA, USA)
Description: Fluorogenic assay kit, recombinant HDAC6 enzyme activity. Conditions: mean±S.E.M., three replicate experiments; read-out: IC50 (nM) of HDAC isoforms enzyme, HDAC6. In kind it is biochemical. From the text:
Using kits that contained different recombinant HDAC isoforms, we evaluated the ability of MPT0G009 to inhibit HDAC-mediated deacetylation of lysine residues on the substrates that were provided. […] Fluorogenic HDAC assay kits were used to assess the ability of HDAC inhibitors to inhibit deacetylation of lysine residues on the substrate by recombinant HDAC1, 2, 3, 4, 6 or 8 according to the manufacturer's instructions.

Among the data in publication PMC5424110, “Preclinical anti-arthritic study and pharmacokinetic properties of a potent histone deacetylase inhibitor MPT0G009” (Cell Death & Disease, 2014) are IC50 values, retold here.

In general, IC50 refers to the concentration that inhibits the measured activity by half.

T1 sequence (Q9UBN7 whole entry): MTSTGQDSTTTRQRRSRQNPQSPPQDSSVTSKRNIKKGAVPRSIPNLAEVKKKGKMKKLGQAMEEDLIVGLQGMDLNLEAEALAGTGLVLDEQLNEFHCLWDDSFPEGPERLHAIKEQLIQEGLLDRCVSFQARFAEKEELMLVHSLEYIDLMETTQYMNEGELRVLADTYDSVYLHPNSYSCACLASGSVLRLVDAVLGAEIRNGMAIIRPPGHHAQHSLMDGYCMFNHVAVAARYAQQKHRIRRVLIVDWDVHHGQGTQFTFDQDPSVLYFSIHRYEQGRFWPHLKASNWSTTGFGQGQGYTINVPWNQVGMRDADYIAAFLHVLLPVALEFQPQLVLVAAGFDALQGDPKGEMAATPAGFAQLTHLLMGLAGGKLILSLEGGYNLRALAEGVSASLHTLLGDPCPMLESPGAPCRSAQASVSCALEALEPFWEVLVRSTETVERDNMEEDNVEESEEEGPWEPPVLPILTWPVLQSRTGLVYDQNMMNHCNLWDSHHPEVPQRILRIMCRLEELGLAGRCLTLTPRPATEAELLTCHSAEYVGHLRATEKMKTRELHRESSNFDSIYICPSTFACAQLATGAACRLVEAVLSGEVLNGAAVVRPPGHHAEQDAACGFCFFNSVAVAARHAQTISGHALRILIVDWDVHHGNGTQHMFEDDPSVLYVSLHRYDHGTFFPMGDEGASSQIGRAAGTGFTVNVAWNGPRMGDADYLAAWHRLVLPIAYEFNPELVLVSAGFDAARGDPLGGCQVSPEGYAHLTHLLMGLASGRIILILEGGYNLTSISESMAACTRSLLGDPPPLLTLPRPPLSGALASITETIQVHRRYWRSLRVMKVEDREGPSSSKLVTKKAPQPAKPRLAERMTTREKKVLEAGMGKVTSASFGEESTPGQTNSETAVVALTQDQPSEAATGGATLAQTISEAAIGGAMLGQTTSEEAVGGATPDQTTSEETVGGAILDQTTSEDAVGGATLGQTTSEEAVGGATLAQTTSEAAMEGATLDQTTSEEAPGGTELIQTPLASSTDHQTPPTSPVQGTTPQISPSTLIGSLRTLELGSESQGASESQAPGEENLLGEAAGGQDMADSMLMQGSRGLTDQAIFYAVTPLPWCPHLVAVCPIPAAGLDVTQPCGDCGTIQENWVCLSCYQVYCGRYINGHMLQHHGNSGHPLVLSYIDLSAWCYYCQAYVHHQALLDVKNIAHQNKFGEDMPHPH

For the molecule `COc1ccc(S(=O)(=O)N2CCc3cc(C=CC(=O)NO)ccc32)cc1` [MPT0G009, 3-[1-(4-methoxybenzenesulfonyl)-2,3-dihydro-1H-indol-5-yl]-N-hydroxyacrylamide], the IC50 was 8.43 ± 0.72 nM.
